*1 amine or outer side, *2 acyl side, *3 side chain or, on linkers, in order; H or OH if unused. Where a SMILES comes first, the peptide text is derived from it. Bridges are numbered along the chain shown (N, C = ends). [ ]: non-standard residue; d: D form. Phe(4-yl) = O=C([C@H](Cc1ccc([*:3])cc1)N[*:1])[*:2]
How the values were obtained:
[1] = Stability testing in human whole blood; settings: for stability in whole blood: human whole blood, result in words, relative to unmodified ADH-1
Stability testing in PBS = settings: result in words, relative to unmodified ADH-1
Aqueous solubility = format: physicochemical; settings: result in words
[2] = humans, following i.v. administration; cited from earlier work

Row | Compound | stability in whole blood [1] | stability in PBS (Stability testing in PBS) | aqueous solubility (Aqueous solubility) | half-life ([1]; human, whole blood) [h] | circulating half-life [2] [h] | excreted unchanged in the urine [2] [%]
1 | CC(=O)N[C@H]1CSCc2cccc(c2)CSC[C@@H](C(N)=O)NC(=O)[C@H](C(C)C)NC(=O)[C@H](C)NC(=O)[C@H](Cc2c[nH]cn2)NC1=O [ADH100705-T] | much less so | much less so | relatively low |  |  | 
2 | CC(=O)N[C@H]1CSCC(=O)CSC[C@@H](C(N)=O)NC(=O)[C@H](C(C)C)NC(=O)[C@H](C)NC(=O)[C@H](Cc2c[nH]cn2)NC1=O [ADH100706-T] | failed to result in improved stability | failed to result in improved stability |  |  |  | 
3 | CC(=O)NC1CSCc2ccccc2CSCC(C(N)=O)NC(=O)[C@H](C(C)C)NC(=O)[C@H](C)NC(=O)[C@H](Cc2c[nH]cn2)NC1=O (stereo partly drawn) [ADH100710-T, 8R, 11S, 14S, 17S, 20R 20-Acetylamino-17-(1H-imidazol-4-ylmethyl)-11-isopropyl-14-methyl-10,13,16,19-tetraoxo-5,7,8,10,11,12,13,14,15,16,17,18,19,20,21,23-hexadecahydro-9H-6,22-dithia-9,12,15,18-tetraaza-benzocyclohenicosene-8-carboxylic acid amide] | stable | stable |  |  |  | 
4 | CC(=O)NC1CSCC(O)CSCC(C(N)=O)NC(=O)[C@H](C(C)C)NC(=O)[C@H](C)NC(=O)[C@H](Cc2c[nH]cn2)NC1=O (stereo partly drawn) [ADH100713-T, 3R, 6S, 9S, 12S, 15R 15-Acetylamino-19-hydroxy-12-(1H-imidazol-4-ylmethyl)-6-isopropyl-9-methyl-5,8,11,14-tetraoxo-1,17-dithia-4,7,10,13-tetraaza-cycloicosane-3-carboxylic acid amide] | stable | stable |  |  |  | 
5 | CC(=O)N[C@H]1CSSC[C@@H](C(N)=O)NC(=O)[C@H](C(C)C)NC(=O)[C@H](C)NC(=O)[C@H](Cc2c[nH]cn2)NC1=O [ADH-1, N-Ac-CHAVC-NH2] |  |  |  | ~2 | 2.5 | 30
6 | CC(=O)N[C@H]1CSC[C@H](O)CSC[C@@H](C(N)=O)NC(=O)[C@H](C(C)C)NC(=O)[C@H](C)NC(=O)[C@H](Cc2c[nH]cn2)NC1=O [ADH-100712-T] | failed to show improved stability | stable |  |  |  | 
7 | CC(=O)N[C@H]1Cc2ccc(cc2)SC[C@@H](C(N)=O)NC(=O)[C@H](C(C)C)NC(=O)[C@H](C)NC(=O)[C@H](Cc2c[nH]cn2)NC1=O [ADH-100716-T, 4R, 7S, 10S, 13S, 16S 16-Acetylamino-13-(1H-imidazol-4-ylmethyl)-7-isopropyl-10-methyl-6,9,12,15-tetraoxo-2-thia-5,8,11,14-tetraaza-bicyclo[16.2.2]docosa 1(21), 18(22), 19-triene-4-carboxylic acid amide] (Ac-[Phe(4-yl)]HAVC-NH2; thioether 1-5) | improved blood stability |  |  |  |  | 

From patent publication US20090131306A1, “CHEMICALLY MODIFIED CYCLIC PEPTIDES CONTAINING CELL ADHESION RECOGNITION (CAR) SEQUENCES AND USES THEREFOR” (ADHEREX TECHNOLOGIES, INC., priority 2007, published 2009)
